The source of these data is US8119681B2, “2-[1-phenyl-5-hydroxy or methoxy-4alpha-methyl-hexahydrocyclopenta [ƒ]indazole-5-YL]ethyl phenyl derivatives as glucocorticoid receptor ligands” (Merck Sharp & Dohme Corp., priority 2006, dated 2012).

In this assay the target is T1, human GR (Homo sapiens, UniProt P04150).
T1 sequence (P04150 1-777): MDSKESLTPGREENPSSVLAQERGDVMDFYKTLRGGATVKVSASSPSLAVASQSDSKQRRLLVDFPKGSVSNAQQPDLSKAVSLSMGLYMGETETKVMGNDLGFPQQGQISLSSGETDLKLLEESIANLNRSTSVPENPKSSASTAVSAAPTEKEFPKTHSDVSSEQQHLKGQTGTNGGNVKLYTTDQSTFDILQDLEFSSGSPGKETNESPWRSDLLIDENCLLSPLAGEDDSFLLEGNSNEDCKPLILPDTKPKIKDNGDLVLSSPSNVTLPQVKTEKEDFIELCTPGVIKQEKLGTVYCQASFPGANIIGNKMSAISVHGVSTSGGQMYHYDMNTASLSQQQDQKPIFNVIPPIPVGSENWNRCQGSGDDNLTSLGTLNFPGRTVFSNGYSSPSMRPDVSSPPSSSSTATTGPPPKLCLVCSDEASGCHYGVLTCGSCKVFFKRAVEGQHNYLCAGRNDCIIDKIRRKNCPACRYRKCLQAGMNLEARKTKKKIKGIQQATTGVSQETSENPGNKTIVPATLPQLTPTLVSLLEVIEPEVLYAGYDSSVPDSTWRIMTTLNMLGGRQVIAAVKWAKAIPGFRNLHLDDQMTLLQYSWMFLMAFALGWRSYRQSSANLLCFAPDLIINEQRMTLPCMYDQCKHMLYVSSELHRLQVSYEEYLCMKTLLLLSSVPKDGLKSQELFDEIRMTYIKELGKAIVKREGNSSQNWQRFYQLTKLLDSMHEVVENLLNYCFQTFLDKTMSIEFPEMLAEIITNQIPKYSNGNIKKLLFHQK
Briefly: Transrepression Assay (GITAR), TNFα-β-lactamase reporter gene in U937 cells. In kind it is cell-based. Details: U937 cells contain an endogenous glucocorticoid receptor (GR); endogenous in cells; host or cells: U937 cells stably transfected with the TNF-α promoter/β-lactamase reporter only. To be noted: U-937; 100 nM dexamethasone = 100% activity; read-out: maximal activity in the transrepression assay. An excerpt: Transrepression Assay (GITAR)
This assay assesses the ability of test compounds to control transcription from the TNFα-β-lactamase reporter gene in U937 cells, a human myelomonocytic leukemia cell line that naturally expresses the human GR. The assay measures compound dependent-repression of the TNFa promoter linked to a reporter gene.
The human U937 cells that had been stably transfected with the TNF-α promoter driving β-lactamase are used for this assay. U937 cells contain an endogenous glucocorticoid receptor (GR). […] 50,000 cells/well are plated in 96 well black-walled plates the day of assay. Test compounds are added 10 μL/well, and cells are incubated at 37° C. for 30˜45 min. For assaying compounds, first dilute 1:10 in DMSO to make 1 mM, then further dilute 1:100 in medium to make 10× stock prior to adding to the cells. Add 50 ng/ml PMA (Sigma, cat# P8139) 10 μL/well to a final concentration 5 ng/ml, and 1 μg/ml LPS (Sigma, cat# L4130) 10 μL/well to a final concentration 100 ng/ml. Incubate cells at 370 C overnight for ˜18 hr. PMA is stored frozen as 100 μg/ml stock in DMSO. Dilute 1:10 in DMSO for a working stock of 10 μg/ml and store at −20 C. For assaying, dilute the 10 μg/ml working stock 1:200 in medium to make a 10× solution (50 ng/ml). Store frozen LPS at 1 mg/ml in PBS, dilute 1:1000 in medium to make 10× (1 μg/ml) for the assay. Add 6× loading buffer (CCF2-AM) 20 μL/well, and incubate at room temperature for 70˜90 min. […] The activity repressed by 100 nM dexamethasone alone is set as 100% activity.
(Reporter assays use an easily measured gene product as a stand-in for the process of interest.)

Regarding `C[C@]12Cc3cnn(-c4ccc(F)cc4)c3C=C1CC[C@@]2(O)CCc1cccc(F)c1C(=O)N1CC[C@H](F)C1` [Example 69, (4αS,5R)-5-[2-(3-fluoro-2-{[(3S)-3-fluoropyrrolidin-1-yl]carbonyl}phenyl)ethyl]-1-(4-fluorophenyl)-4α-methyl-1,4,4α,5,6,7-hexahydrocyclopenta[f]indazol-5-ol], the Emax was 5 to 100%. For `CC(C)(NC(=O)c1ccccc1CC[C@]1(O)CCC2=Cc3c(cnn3-c3ccc(F)cc3)C[C@@]21C)C(N)=O` [Example 70, N-(2-amino-1,1-dimethyl-2-oxoethyl)-2-{2-[(4αS,5R)-1-(4-fluorophenyl)-5-hydroxy-4α-methyl-1,4,4α,5,6,7-hexahydrocyclopenta[f]indazol-5-yl]ethyl}benzamide] the value was 5 to 100%.

For `CCNC(=O)C(C)(C)NC(=O)c1ccccc1CC[C@]1(O)CCC2=Cc3c(cnn3-c3ccc(F)cc3)C[C@@]21C` [Example 71, N-[2-(ethylamino)-1,1-dimethyl-2-oxoethyl]-2-{2-[(4αS,5R)-1-(4-fluorophenyl)-5-hydroxy-4α-methyl-1,4,4α,5,6,7-hexahydrocyclopenta[f]indazol-5-yl]ethyl}benzamide], the Emax lay in the range of 5 to 100%.

With `COC(=O)[C@@H](C)NC(=O)c1ccccc1CC[C@]1(O)CCC2=Cc3c(cnn3-c3ccc(F)cc3)C[C@@]21C` [Example 72, methyl N-(2-{2-[(4αS,5R)-1-(4-fluorophenyl)-5-hydroxy-4α-methyl-1,4,4α,5,6,7-hexahydrocyclopenta[f]indazol-5-yl]ethyl}benzoyl)-D-alaninate], the Emax fell in the range of 5 to 100%. The same measure for `CC1CN1C(=O)c1ccccc1CC[C@]1(O)CCC2=Cc3c(cnn3-c3ccc(F)cc3)C[C@@]21C` (stereo partly drawn) [Example 73, (4αS,5R)-1-(4-fluorophenyl)-4α-methyl-5-(2-{2-[(2-methylaziridin-1-yl)carbonyl]phenyl}ethyl)-1,4,4α,5,6,7-hexahydrocyclopenta[f]indazol-5-ol]: 5 to 100%; for `C[C@]12Cc3cnn(-c4ccc(F)cc4)c3C=C1CC[C@@]2(O)CCc1ccccc1C(=O)N1CCC(F)(F)C1` [Example 74, (4αS,5R)-5-(2-{2-[(3,3-difluoropyrrolidin-1-yl)carbonyl]phenyl}ethyl)-1-(4-fluorophenyl)-4α-methyl-1,4,4α,5,6,7-hexahydrocyclopenta[f]indazol-5-ol]: 5 to 100%. For `CNC(=O)C(C)(C)NC(=O)c1ccccc1CC[C@]1(O)CCC2=Cc3c(cnn3-c3ccc(F)cc3)C[C@@]21C` [Example 75, N-[1,1-dimethyl-2-(methylamino)-2-oxoethyl]-2-{2-[(4αS,5R)-1-(4-fluorophenyl)-5-hydroxy-4α-methyl-1,4,4α,5,6,7-hexahydrocyclopenta[f]indazol-5-yl]ethyl}benzamide] the value was 5 to 100%; for `C[C@]12Cc3cnn(-c4ccc(F)cc4)c3C=C1CC[C@@]2(O)CCc1cccc(F)c1C(=O)N1CCCC(F)(F)C1` [Example 76, (4αS,5R)-5-(2-{2-[(3,3-difluoropiperidin-1-yl)carbonyl]-3-fluorophenyl}ethyl)-1-(4-fluorophenyl)-4α-methyl-1,4,4α,5,6,7-hexahydrocyclopenta[f]indazol-5-ol], 5 to 100%; for `C[C@]12Cc3cnn(-c4ccc(F)cc4)c3C=C1CC[C@@]2(O)CCc1cccc(F)c1C(=O)N1CCC(F)(F)C1` [Example 77, (4αS,5R)-5-(2-{2-[(3,3-difluoropyrrolidin-1-yl)carbonyl]-3-fluorophenyl}ethyl)-1-(4-fluorophenyl)-4α-methyl-1,4,4α,5,6,7-hexahydrocyclopenta[f]indazol-5-ol], 5 to 100%. For `C[C@]12Cc3cnn(-c4ccc(F)cc4)c3C=C1CC[C@@]2(O)CCc1cccc(F)c1CNS(=O)(=O)c1ccccc1` [Example 78, N-(2-fluoro-6-{2-[(4αS,5R)-1-(4-fluorophenyl)-5-hydroxy-4α-methyl-1,4,4α,5,6,7-hexahydrocyclopenta[f]indazol-5-yl]ethyl}benzyl)benzenesulfonamide] the value was 5 to 100%. Turning to `C[C@]12Cc3cnn(-c4ccc(F)cc4)c3C=C1CC[C@@]2(O)CCc1cccc(F)c1CNS(=O)(=O)c1ccc(F)cc1F` [Example 79, 2,4-difluoro-N-(2-fluoro-6-{2-[(4αS,5R)-1-(4-fluorophenyl)-5-hydroxy-4α-methyl-1,4,4α,5,6,7-hexahydrocyclopenta[f]indazol-5-yl]ethyl}benzyl)benzenesulfonamide], the Emax was in the range of 5 to 100%. On to `C[C@]12Cc3cnn(-c4ccc(F)cc4)c3C=C1CC[C@@]2(O)CCc1cccc(F)c1CNS(=O)(=O)c1ccccc1F` [Example 80, 2-fluoro-N-(2-fluoro-6-{2-[(4αS,5R)-1-(4-fluorophenyl)-5-hydroxy-4α-methyl-1,4,4α,5,6,7-hexahydrocyclopenta[f]indazol-5-yl]ethyl}benzyl)benzenesulfonamide], for which the Emax lay in the range of 5 to 100%.

On to `C[C@]12Cc3cnn(-c4ccc(F)cc4)c3C=C1CC[C@@]2(O)CCc1cccc(F)c1CNS(=O)(=O)c1cccc(C#N)c1` [Example 81, 3-cyano-N-(2-fluoro-6-{2-[(4αS,5R)-1-(4-fluorophenyl)-5-hydroxy-4α-methyl-1,4,4α,5,6,7-hexahydrocyclopenta[f]indazol-5-yl]ethyl}benzyl)benzenesulfonamide], for which the Emax is 5 to 100%. The same measure for `C[C@]12Cc3cnn(-c4ccc(F)cc4)c3C=C1CC[C@@]2(O)CCc1cccc(F)c1CNS(=O)(=O)c1cccnc1` [Example 82, N-(2-fluoro-6-{2-[(4αS,5R)-1-(4-fluorophenyl)-5-hydroxy-4α-methyl-1,4,4α,5,6,7-hexahydrocyclopenta[f]indazol-5-yl]ethyl}benzyl)pyridine-3-sulfonamide]: 5 to 100%.

`C[C@]12Cc3cnn(-c4ccc(F)cc4)c3C=C1CC[C@@]2(O)CCc1ccccc1CNS(C)(=O)=O` [Example 87, N-(2-{2-[(4αS,5R)-1-(4-fluorophenyl)-5-hydroxy-4α-methyl-1,4,4α,5,6,7-hexahydrocyclopenta[f]indazol-5-yl]ethyl}benzyl)methanesulfonamide]: the Emax lay in the range of 5 to 100%. In the case of `C[C@]12Cc3cnn(-c4ccc(F)cc4)c3C=C1CC[C@@]2(O)CCc1ccccc1CNS(=O)(=O)CC(F)(F)F` [Example 90, 2,2,2-trifluoro-N-(2-{2-[(4αS,5R)-1-(4-fluorophenyl)-5-hydroxy-4α-methyl-1,4,4α,5,6,7-hexahydrocyclopenta[f]indazol-5-yl]ethyl}benzyl)ethanesulfonamide], the Emax lay within 5 to 100%. The same measure for `C[C@]12Cc3cnn(-c4ccc(F)cc4)c3C=C1CC[C@@]2(O)CCc1cccc(F)c1CNS(=O)(=O)c1ccco1` [Example 92, N-(2-fluoro-6-{2-[(4αS,5R)-1-(4-fluorophenyl)-5-hydroxy-4α-methyl-1,4,4α,5,6,7-hexahydrocyclopenta[f]indazol-5-yl]ethyl}benzyl)furan-2-sulfonamide]: 5 to 100%; for `Cn1cnc(S(=O)(=O)NCc2c(F)cccc2CC[C@]2(O)CCC3=Cc4c(cnn4-c4ccc(F)cc4)C[C@@]32C)c1` [Example 93, N-(2-fluoro-6-{2-[(4αS,5R)-1-(4-fluorophenyl)-5-hydroxy-4α-methyl-1,4,4α,5,6,7-hexahydrocyclopenta[f]indazol-5-yl]ethyl}benzyl)-1-methyl-1H-imidazole-4-sulfonamide]: 5 to 100%; for `C[C@]12Cc3cnn(-c4ccc(F)cc4)c3C=C1CC[C@@]2(O)CCc1cccc(F)c1CNS(=O)(=O)c1ccccc1C#N` [Example 94, 2-cyano-N-(2-fluoro-6-{2-[(4αS,5R)-1-(4-fluorophenyl)-5-hydroxy-4α-methyl-1,4,4α,5,6,7-hexahydrocyclopenta[f]indazol-5-yl]ethyl}benzyl)benzenesulfonamide]: 5 to 100%.
